Like-named read-outs stand apart in the source and are kept apart here.
What was measured:
Type in all cases: cell-based, human
[1] = test system: HTT; assay: Splicing RT-qPCR assay, HTT mRNA canonical junction (CJ) and alternative junction (AJ); conditions: Homo sapiens; for AC50: increase in AJ mRNA
Description: (§1) Compounds described herein were used to modulate RNA transcript abundance in cells. The expression of a target mRNA was measured by detecting the formation of an exon-exon junction in the canonical transcript (CJ). A compound mediated exon-inclusion event was detected by observing an increase in formation of a new junction with an alternative exon (AJ). Real-time qPCR assays were used to detect these splicing switches and interrogate the potency of various compounds towards different target genes. A high-throughput real time quantitative PCR (RT-qPCR) assay was developed to measure these two isoforms of the mRNA (CJ and AJ) for exemplary genes, such as HTT, SMN2, and MYB, together with a control housekeeping gene, GAPDH or GUSB or PPIA, used for normalization. Briefly, the A673 or K562 cell line was treated with various compounds described herein (e.g., compounds of Formula (I)). After treatment, the levels of the HTT, MYB, or SMN2 mRNA targets were determined from each sample of cell lysate by cDNA synthesis followed by qPCR.
(§2) The A673 cell line was cultured in DMEM with 10% FBS. Cells were diluted with full growth media and plated in a 96-well plate (15,000 cells in 100 ul media per well). The plate was incubated at 37° C. with 5% CO2 for 24 hours to allow cells to adhere. An 11-point 3-fold serial dilution of the compounds was made in DMSO then diluted in media in an intermediate plate. Compounds were transferred from the intermediate plate to the cell plate with the top dose at a final concentration of 10 uM in the well. Final DMSO concentration was kept at or below 0.25%. The cell plate was returned to the incubator at 37° C. with 5% CO2 for an additional 24 hours.
(§3) The K562 cell line was cultured in IMDM with 10% FBS. For K562, cells were diluted with full growth media and plated in either a 96-well plate (50,000 cells in 50 uL media per well) or a 384-well plate (8,000-40,000 cells in 45 uL media per well). An 11-point 3-fold serial dilution of the compounds were made in DMSO then diluted in media in an intermediate plate. Compound was transferred from the intermediate plate to the cell plate with the top dose at a final concentration of 10 uM in the well. Final DMSO concentration was kept at or below 0.25%. Final volume was 100 uL for 96-well plate and 50 uL for 384-well plate. The cell plate was then placed in an incubator at 37° C. with 5% CO2 for 24 hours.
(§4) The cells were then gently washed with 50 uL-100 uL cold PBS before proceeding to addition of lysis buffer. 30 uL-50 μL of room temperature lysis buffer with DNAse I (and optionally RNAsin) was added to each well. Cells were shaken/mixed thoroughly at room temperature for 5-10 minutes for lysis to take place and then 3 uL-5 μL of room temperature stop solution was added and wells were shaken/mixed again. After 2-5 minutes, the cell lysate plate was transferred to ice for RT-qPCR reaction setup. The lysates could also be frozen at −80° C. for later use.
(§5) In some cases, a direct lysis buffer was used. An appropriate volume of 3× lysis buffer (10 mM Tris, 150 mM NaCl, 1.5%-2.5% Igepal and 0.1-1 U/uL RNAsin, pH 7.4) was directly added to either K562 or A673 cells in media and mixed by pipetting 3 times. The plates were then incubated at room temperature with shaking/rocking for 20-50 minutes to allow for lysis to take place. After this time, the cell lysate plate was transferred to ice to set up for the RT-qPCR reactions. The lysates could also be frozen at −80° C. for later use.
(§6) To set up 10 uL RT-qPCR reactions, cell lysates were transferred to 384-well qPCR plates containing the master mix according to the table below. The plates were sealed, gently vortexed, and spun down before the run. The volumes were adjusted accordingly in some instances where the reaction was carried in 20 μL. The table below summarizes the components of the RT-qPCR reactions:
(§7) The RT-qPCR reaction was performed using a QuantStudio (ThermoFisher) under the following fast cycling conditions. […]

[2] = test system: MYB; assay: Splicing RT-qPCR assay, MYB mRNA canonical junction (CJ) and alternative junction (AJ); conditions: Homo sapiens; for AC50: increase in AJ mRNA
Description: as §1, §2, §3, §4, §5, §6, §7

[3] = test system: Target C; assay: Splicing RT-qPCR panel, Target C canonical junction (CJ) mRNA; conditions: Homo sapiens, read-out: Target C IC50 (decrease in CJ mRNA levels)
Description: as §1, §2, §3, §4, §5, §6, §7

[4] = test system: MYB; assay: HiBiT protein abundance assay, MYB; conditions: Homo sapiens, K562, 24 h, modified K562 cells
Description: (§8) Compounds described herein were used to screen for effects on quantitative protein abundance using a HiBit assay system (Promega). Quantitative protein abundance was determined by measuring the protein levels of HiBit-tagged protein targets expressed in cell culture via luminescence using the Nano-Glo HiBiT Lytic Detection System, which uses a split complementation assay format to reconstitute NanoBiT enzyme to generate a luminescent signal. A protein abundance assay was developed such that endogenous protein targets could be modified with the HiBiT peptide tag and their abundance could be assessed after compound treatment. Briefly, K562 cell lines containing a HiBiT-modification were treated with various compounds described herein (e.g., compounds of Formulas (I), (II), or (III)). After treatment for 24 hours, the protein abundance of a specific target was determined by measuring luminescence.
(§9) Cells were maintained in IMIDM with 10% FBS. Before the assay, cells were diluted with […] growth media (IMIDM+[…] media) and were seeded in a 384-well plate at a density of 10000 cells/well (for each cell line listed in Table 12). Each compound was prepared as a 10-point 3-fold serial dilution in DMSO with the top dose at a final concentration of 10 μM in the well. Unmodified K562 cells were added at the previously specified density with DMSO to serve as an assay baseline and positive control (PC) and DMSO only with the respective modified cell lines was added to the negative control (NC) columns. Final DMSO concentration was kept at or below 0.25%. Treated cell plates were placed in an incubator at 37° C. with 5% CO2 for 24 hours. After 24 hours, 25 μL of Complete HiBit Lytic reagent was added to each well at room temperature (e.g. one plate requiring 10 mL Lytic Buffer, 100 μL LgBiT Protein, 200 μL Lytic Substrate), shaken for 5 minutes at 600 RPM, then left to sit for 10 minutes for signal to stabilize before reading on a Spark Cyto plate reader (Tecan) with a 500 ms measurement time.
(§10) To determine compound effects on protein abundance of each target in Table 12, the percent response for each respective cell line was calculated at each compound concentration as follows:
(§11) For the normalized response at each concentration, a four-parameter logistical regression was fit to the data and the response was interpolated at the 50% value to determine a concentration for protein abundance at 50% (IC50) the untreated control.

[5] = test system: HTT; assay: HiBiT protein abundance assay, HTT; conditions: Homo sapiens, K562, 24 h, modified K562 cells
Description: as §8, §9, §10, §11

[6] = test system: Target C; assay: HiBiT protein abundance assay, Target C; conditions: Homo sapiens, K562, 24 h, modified K562 cells
Description: • Promega Nano-Glo HiBiT Lytic Detection System (cat #N3030) • Coming 384-well TC-treated microplates (cat #3570) • Synthego Engineered Cells Knock-In Clones
as §9, §10, §11

[7] = test system: SMN2; assay: Splicing RT-qPCR panel, SMN2 canonical junction (CJ) mRNA; conditions: Homo sapiens, read-out: SMN2 IC50 (decrease in CJ mRNA levels)
Description: as §1, §2, §3, §4, §5, §6, §7

[8] = 24 h, A673 or K562 cells, 24 hours treatment, RT-qPCR
[9] = 24 h, decrease in CJ mRNA, A673 or K562 cells, 24 hours treatment, RT-qPCR, read-out: MYB CJ IC50
[10] = RT-qPCR panel, canonical junction mRNA, compound concentration having 50% response in CJ decrease, read-out: MYB IC50 (decrease in CJ mRNA levels)
[11] = RT-qPCR panel, canonical junction mRNA, compound concentration having 50% response in CJ decrease
[12] = 24 h, decrease in CJ mRNA, A673 or K562 cells, 24 hours treatment, RT-qPCR, read-out: HTT CJ IC50
[13] = RT-qPCR panel, canonical junction mRNA, compound concentration having 50% response in CJ decrease, read-out: HTT IC50 (decrease in CJ mRNA levels)
[14] = A673 or K562 cells, 24 hours treatment, RT-qPCR
[15] = gene panel, CJ qPCR, protocol of Example 142, read-out: MYB IC50 (decrease in CJ mRNA levels)
[16] = gene panel, CJ qPCR, protocol of Example 142

SMILES	AC50 [1, 8] [nM]	IC50 [2, 9] [nM]	AC50 [2, 8] [nM]	IC50 [2, 10] [nM]	IC50 [3, 11] [nM]	IC50 [1, 13] [nM]	IC50 [7, 11] [nM]	other results
C[C@H]1C[C@@H](N(C)c2ccc(-c3ccc(-n4cccn4)c4cc[nH]c34)nn2)CCN1 [Compound 111]	> 10000	1000 to 10000	> 10000	1000 to 10000	> 10000	–	–	IC50 ([4]; Table 13A): 1000 to 10000 nM; IC50 ([5]; Table 13A): 1000 to 10000 nM; IC50 ([6]; Table 13A): 1000 to 10000 nM
C[C@@H]1C[C@H](N(C)c2ccc(-c3ccc(-n4cccn4)c4nn[nH]c34)nn2)CCN1 [Compound 117]	1000 to 10000	1000 to 10000	1000 to 10000	1000 to 10000	1000 to 10000	–	–	IC50 ([4]; Table 13A): 1000 to 10000 nM; IC50 ([5]; Table 13A): 1000 to 10000 nM; IC50 ([6]; Table 13A): 1000 to 10000 nM
CN(c1ccc(-c2ccc(-c3cn[nH]c3)c3nn[nH]c23)nn1)[C@@H]1C[C@H]2CC[C@@H](C1)N2 [Compound 118]	> 10000	> 10000	1000 to 10000	> 10000	1000 to 10000	–	–	IC50 ([4]; Table 13A): 1000 to 10000 nM; IC50 ([5]; Table 13A): 1000 to 10000 nM; IC50 ([6]; Table 13A): 1000 to 10000 nM
CN(c1ccc(-c2ccc(-n3cccn3)c3nn[nH]c23)nn1)[C@@H]1C[C@H]2CC[C@@H](C1)N2 [Compound 119]	1000 to 10000	100 to 1000	100 to 1000	100 to 1000	100 to 1000	100 to 1000	100 to 1000	IC50 [1, 12]: 100 to 1000 nM
CN(c1ccc(-c2ccc(-c3cn[nH]c3)c3ccsc23)nn1)C1CC(C)(C)NC(C)(C)C1 [Compound 131]	> 10000	> 10000	> 10000	> 10000	–	1000 to 10000	100 to 1000	IC50 [1, 12]: 1000 to 10000 nM
CC1(C)CC(Oc2ccc(-c3ccc(-c4cn[nH]c4)c4cn[nH]c34)nn2)CC(C)(C)N1 [Compound 138]	100 to 1000	100 to 1000	100 to 1000	100 to 1000	100 to 1000	100 to 1000	100 to 1000	IC50 [1, 12]: 100 to 1000 nM
CN(c1cnc(-c2cc(F)c(-c3cn[nH]c3)c3cn[nH]c23)nn1)[C@@H]1C[C@H]2CC[C@@H](C1)N2 [Compound 149]	–	–	–	1000 to 10000	100 to 1000	< 100	100 to 1000	AC50 [1, 14]: < 100 nM; IC50 ([2]; decrease in CJ mRNA, A673 or K562 cells, 24 hours treatment, RT-qPCR, read-out: MYB CJ IC50): 1000 to 10000 nM; AC50 [2, 14]: 1000 to 10000 nM
CN(c1ccc(-c2ccc(-n3cccn3)c3cn[nH]c23)nn1)C1CC(C)(C)NC(C)(C)C1 [Compound 150]	1000 to 10000	100 to 1000	100 to 1000	100 to 1000	–	100 to 1000	100 to 1000	IC50 [1, 12]: 100 to 1000 nM
CN(c1cnc(-c2cc(F)c(-c3cnn(C)c3)c3cn[nH]c23)nn1)[C@@H]1C[C@H]2CC[C@@H](C1)N2 [Compound 290]	< 100	1000 to 10000	100 to 1000	1000 to 10000	100 to 1000	< 100	100 to 1000	–
c1cnn(-c2ccc(-c3ccc(O[C@@H]4C[C@H]5CC[C@@H](C4)N5)nn3)c3cn[nH]c23)c1 [Compound 308]	< 100	< 100	< 100	< 100	< 100	< 100	< 100	–
CN(c1ccc(-c2ccc(-n3cccn3)c3[nH]ncc23)nn1)[C@@H]1C[C@H]2CC[C@@H](C1)N2 [Compound 409]	< 100	100 to 1000	100 to 1000	100 to 1000	< 100	< 100	< 100	–
C[C@@H]1C[C@H](N(C)c2ccc(-c3ccc(-c4cn[nH]c4)c(=O)[nH]3)nn2)CCN1 [Compound 901]	–	–	–	–	–	–	–	IC50 [2, 15]: > 10000 nM; IC50 ([4]; Table 13B): > 10000 nM; IC50 ([5]; Table 13B): > 10000 nM; IC50 ([6]; Table 13B): > 10000 nM
C[C@H]1C[C@@H](N(C)c2ccc(-c3ccc(-n4cccn4)c(=O)[nH]3)nn2)CCN1 [Compound 903]	–	–	–	–	–	–	–	IC50 [2, 15]: > 10000 nM; IC50 [3, 16]: > 10000 nM; IC50 ([4]; Table 13B): > 10000 nM; IC50 ([5]; Table 13B): > 10000 nM; IC50 ([6]; Table 13B): > 10000 nM
COc1nc(-c2ccc(N(C)[C@@H]3CCN[C@H](C)C3)nn2)ccc1-c1cn[nH]c1 [Compound 909]	–	–	–	–	–	–	–	IC50 ([1]; gene panel, CJ qPCR, protocol of Example 142, read-out: HTT IC50 (decrease in CJ mRNA levels)): 1000 to 10000 nM; IC50 [2, 15]: 1000 to 10000 nM; IC50 [7, 16]: 100 to 1000 nM; IC50 ([4]; Table 13B): 1000 to 10000 nM; IC50 ([5]; Table 13B): 1000 to 10000 nM; IC50 ([6]; Table 13B): 1000 to 10000 nM

Reference: patent publication US20240368163A1, “COMPOUNDS AND METHODS FOR MODULATING SPLICING” (REMIX THERAPEUTICS INC., priority 2021, published 2024)
